# Measurements: patent US12030840B2 (GENFIT, priority 2018, dated 2024)
# Residue numbers refer to the chain shown, from its start. Structures can show the parent of a compound that is named as a salt. Where two headings read alike, the source gives them in different places.
# Legend:
# [1] = Solubility assessment in buffered aqueous solution; conditions: for solubility at 24 h: 20 °C, thermodynamic from solid
# Procedure: The solubility of the compound is determined in buffered aqueous solution at pH 1, pH 3, pH 5 and pH 7.4.
# The saturation is obtained by adding an excess of active ingredient to a given volume of test medium. The suspension is stirred by orbital stirring over 24 hours at […], away from light.
# After 30 min, 1 hour, 2 hours and/or 24 hours, the supernatant is isolated by centrifugation and diluted in a solvent mixture allowing its injection into the chromatographic system. The concentration (expressed as parent concentration) in solution for each medium is determined by HPLC (external standardization).
# After 24 hours an XRPD analysis is performed on the insoluble fraction isolated by centrifugation.
# • pH 1 HCl/KCl buffer: a mixture of 0.373 g of KCl and 13.4 ml of HCl in a 100 mL volumetric flask was completed to 100 mL with de-ionized water. • pH 3 citrate buffer: 1.051 g of citric acid monohydrate was dissolved in 250 ml of de-ionized water. The pH was adjusted to 3 with NaOH. • pH 5 citrate/phosphate buffer: Solution I was prepared: 2.8392 g of Na2HPO4 in 100 mL volumetric flask was completed to 100 mL with de-ionized water. Solution II was prepared: 2.1004 g of citric acid monohydrate in a 100 mL volumetric flask was completed to 100 mL with de-ionized water. To 48.5 mL of Solution II were added 51.5 mL of Solution I. • pH 7.4 phosphate buffer: a mixture of 38 g of Na2HPO4, 12H2O and 3.8 g of Na2HPO4, 2H2O in a 1 L volumetric flask was completed to 1 L with de-ionized water. Salt Screening Macroscopic Observation
# PPARgamma [2] = molecular target: T1, PPARgamma (Mus musculus, UniProt P37238); test: Gal4-PPAR transactivation assay in COS-7 cells, murine PPARgamma; assay type: cell-based; conditions: Murin
# T1 sequence (P37238 238-505 limits assumed): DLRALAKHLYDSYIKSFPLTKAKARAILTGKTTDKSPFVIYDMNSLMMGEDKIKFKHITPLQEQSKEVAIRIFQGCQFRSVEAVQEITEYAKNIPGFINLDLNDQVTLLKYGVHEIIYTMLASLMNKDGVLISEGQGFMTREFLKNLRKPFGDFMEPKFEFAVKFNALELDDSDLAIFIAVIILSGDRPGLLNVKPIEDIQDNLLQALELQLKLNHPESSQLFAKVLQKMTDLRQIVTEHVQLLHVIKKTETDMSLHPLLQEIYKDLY
# Procedure: (§1) Monkey kidney COS-7 cells were maintained in standard culture conditions (Dulbecco's modified Eagle's minimal medium: DMEM) supplemented with 10% fetal calf serum, 1% sodium pyruvate, 1% essential amino acids, 1% L-glutamine and 1% antibiotics at 37° C. in a humidified atmosphere of 5% CO2 and 95% air. The medium was changed every 2 days. All tested compounds were dissolved in DMSO. Cells were transfected using 4 μl JetPEI™ (Polyplus transfection)/μg of DNA. Briefly, 150 ng of DNA per well was transfected in a 96 well culture plate of adherent COS-7 cells (respecting the 10:1 ratio between the Gal4(RE)_TkpGL3 plasmid and the plasmid coding the nuclear receptor of interest (pGal4-hPPARalpha, pGal4-hPPARgamma, pGal4-hPPARdelta, pGal4-mPPARalpha, pGal4-mPPARgamma and pGal4-mPPARdelta) or of the pGal4phi plasmid (negative control). Cells were enzymatically detached and seeded in 96 well plates at the density of 40,000 cells per well and then incubated for 24 hours at 37° C. The activation was performed in DMEM 0% fetal calf serum, supplemented with the tested compounds (compound of interest or reference molecules) or vehicle (DMSO 0.1%). The luciferase activity was measured with the Steady-Glo Luciferase Assay System (Promega, Madison, WI). All transactivation experiments were performed at least 2 times. Activation curves were realized using Prism® (from GraphPad) software. Prism® was also used to fit the standard curves and then determine the specific EC50 values, maximum effect versus reference molecules and Hill slope. The Emax effect of each new ligand is represented as the ratio of the maximal induction (plateau) obtained with the new ligand and the induction obtained with the corresponding reference compound. The reference compounds for PPARalpha, PPARgamma and PPARdelta were fenofibrate (100 μM), rosiglitazone (10 μM) and GW501516 (1 μM), respectively.
# [3] = Photostability protocol (UV exposure, ICH Q1B, SUNTEST, HPLC); assay type: physicochemical; conditions: after 17 h exposure to UV light; for Elafibranor degradation (%): HPLC-UV at 350 nm
# Procedure: In order to make the difference between the degradation only due to temperature within the SUNTEST apparatus chamber and the degradation only due to UV exposure, a second elafibranor salt sample protected from light is also placed in the SUNTEST chamber. All samples are then analyzed by HPLC.
# The crystallized samples were stressed by exposure to UV light according to the photostatbility protocol described above.
# PPARalpha [4] = molecular target: T2, PPARalpha (Mus musculus, UniProt P23204); test: Gal4-PPAR transactivation assay in COS-7 cells, murine PPARalpha; assay type: cell-based; conditions: Murin
# T2 sequence (P23204 200-468 limits assumed): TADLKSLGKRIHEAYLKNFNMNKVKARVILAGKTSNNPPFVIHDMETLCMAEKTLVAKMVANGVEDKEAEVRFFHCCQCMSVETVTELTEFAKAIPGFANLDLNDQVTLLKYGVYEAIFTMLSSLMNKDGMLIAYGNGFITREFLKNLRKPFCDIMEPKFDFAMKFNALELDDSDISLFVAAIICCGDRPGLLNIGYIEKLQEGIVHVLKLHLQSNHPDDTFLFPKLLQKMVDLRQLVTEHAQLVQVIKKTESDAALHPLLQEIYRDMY
# Procedure: as §1
# PPARgamma [5] = molecular target: T3, PPARgamma (Homo sapiens, UniProt P37231); test: Gal4-PPAR transactivation assay in COS-7 cells, human PPARgamma; assay type: cell-based
# T3 sequence (P37231 238-505 limits assumed): T1 sequence (P37238 238-505 limits assumed) with N93S, I98V, N146S, V226L, H245Q
# Procedure: as §1
# PPARalpha [6] = molecular target: T4, PPARalpha (Homo sapiens, UniProt Q07869); test: Gal4-PPAR transactivation assay in COS-7 cells, human PPARalpha; assay type: cell-based
# T4 sequence (Q07869 200-468 limits assumed): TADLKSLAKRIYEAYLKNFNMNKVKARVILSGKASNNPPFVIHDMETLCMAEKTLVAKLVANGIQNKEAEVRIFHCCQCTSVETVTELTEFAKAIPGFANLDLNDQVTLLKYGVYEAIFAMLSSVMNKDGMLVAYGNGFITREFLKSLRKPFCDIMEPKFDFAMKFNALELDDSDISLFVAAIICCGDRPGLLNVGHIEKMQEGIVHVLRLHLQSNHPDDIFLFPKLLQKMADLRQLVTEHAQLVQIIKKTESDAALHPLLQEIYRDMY
# Procedure: as §1
# [7] = listed as Elafibranor L-Arginine salt
smiles,measurement,setting,value
"CSc1ccc(C(=O)/C=C/c2cc(C)c(OC(C)(C)C(=O)O)c(C)c2)cc1.NC(CO)(CO)CO [Form I, Elafibranor tromethamine salt]",Final pH of the saturated solution,[1]; pH 1 HCl/KCl buffer,0.9
same,Soluble fraction (mg/mL) at 20° C. at 24 hours,[1]; pH 1 HCl/KCl buffer,<0.001 mg/mL
same,Final pH of the saturated solution,[1]; pH 3 citrate buffer,3.1
same,Soluble fraction (mg/mL) at 20° C. at 24 hours,[1]; pH 3 citrate buffer,<0.001 mg/mL
same,Final pH of the saturated solution,[1]; pH 5 citrate/phosphate buffer,5.1
same,Soluble fraction (mg/mL) at 20° C. at 24 hours,[1]; pH 5 citrate/phosphate buffer,0.003 mg/mL
same,Solubility compared to elafibranor,[1]; pH 7.4,more soluble than elafibranor
same,Final pH of the saturated solution,[1]; pH 7.4 phosphate buffer,7.3
same,Soluble fraction (mg/mL) at 20° C. at 24 hours,[1]; pH 7.4 phosphate buffer,0.19 mg/mL
same,EC50,PPARgamma [2],0.73 µM
same,Photostability compared to elafibranor free acid,[3],significant improvement of the photostability
same,Elafibranor degradation (%),[3],10%
same,EC50,PPARalpha [4],0.103 µM
same,EC50,PPARgamma [5],0.49 µM
same,EC50,PPARalpha [6],0.068 µM
"CSc1ccc(C(=O)/C=C/c2cc(C)c(OC(C)(C)C(=O)O)c(C)c2)cc1 [Elafibranor, reference compound]",solubility at 24 h,"[1]; pH 1, simulated gastric fluid",< 1 µg/mL
same,solubility at 24 h,"[1]; pH 3, aqueous buffer",< 1 µg/mL
same,solubility at 24 h,"[1]; pH 5, aqueous buffer",1 µg/mL
same,solubility at 24 h,"[1]; pH 7.4, aqueous buffer",130 µg/mL
same,Final pH of the saturated solution,[1]; pH 1 HCl/KCl buffer,0.7
same,Final pH of the saturated solution,[1]; pH 3 citrate buffer,2.9
same,Final pH of the saturated solution,[1]; pH 5 citrate/phosphate buffer,4.9
same,Final pH of the saturated solution,[1]; pH 7.4 phosphate buffer,7.3
same,EC50,PPARgamma [2],0.58 µM
same,Elafibranor degradation (%),[3]; listed as Free acid,27%
same,Elafibranor degradation (%),[3]; listed as elafibranor free acid,27%
same,EC50,PPARalpha [4],0.095 µM
same,EC50,PPARgamma [5],0.43 µM
same,EC50,PPARalpha [6],0.057 µM
"CSc1ccc(C(=O)/C=C/c2cc(C)c(OC(C)(C)C(=O)O)c(C)c2)cc1 [Form II, Elafibranor potassium salt]",EC50,PPARgamma [2],0.59 µM
same,Photostability compared to elafibranor free acid,[3],significant improvement of the photostability
same,Elafibranor degradation (%),"[3]; listed as Potassium salt (Form II), potassium salt",13%
same,Elafibranor degradation (%),[3]; potassium salt,13%
same,EC50,PPARalpha [4],0.096 µM
same,EC50,PPARgamma [5],0.43 µM
same,EC50,PPARalpha [6],0.064 µM
"CSc1ccc(C(=O)/C=C/c2cc(C)c(OC(C)(C)C(=O)O)c(C)c2)cc1 [Form III, Elafibranor sodium salt]",EC50,PPARgamma [2],0.77 µM
same,Elafibranor degradation (%),[3]; sodium salt,89%
same,EC50,PPARalpha [4],0.133 µM
same,EC50,PPARgamma [5],0.56 µM
same,EC50,PPARalpha [6],0.077 µM
"CSc1ccc(C(=O)/C=C/c2cc(C)c(OC(C)(C)C(=O)O)c(C)c2)cc1.N=C(N)NCCC[C@H](N)C(=O)O [Form IV, Elafibranor L-arginate salt]",EC50,PPARgamma [2]; [7],0.58 µM
same,Photostability compared to elafibranor free acid,[3],significant improvement of the photostability
same,Elafibranor degradation (%),[3],4%
same,EC50,PPARalpha [4]; [7],0.093 µM
same,EC50,PPARgamma [5]; [7],0.32 µM
same,EC50,PPARalpha [6]; [7],0.054 µM
